Results from patent US4745117A, “Imide derivatives and compositions for use as antipsychotic agents” (Sumitomo Pharmaceuticals Company, Limited, priority 1985, dated 1988).
Like-named read-outs stand apart in the source and are kept apart here.

Assays:
[1] = Extrapyramidal activity: catalepsy inducing activity test; set-up: species or system mice (dd strain male); details: mouse, in vivo
Procedure: (§1) (2) Extrapyramidal activity
(§2) This activity was examined through the catalepsy inducing activity test as described in M. Fujiwara et al.: Folia Formacol., Japon: 85, 259-274 (1985). A designated amount of the test compound was orally administered to dd strain male mice (bodyweight, 22 to 27 g), and 1 and 4 hours after the administration, catalepsy induction was checked according to the Wirth et al method. Thus, each of the animals was forced to hang the forepows onto a metal pole of 2.5 mm in diameter horizontally situated at a height of 5 cm to maintain a strained state. The test was made with three replications, and the presence of at least one case where the animal was kept in the strained state over a period of 30 seconds was deemed to have caused catalepsy.

[2] = test system: climbing behavior induced by apomorphine; assay: Neuroleptic activity: anti-climbing behavior test (suppression of climbing behavior induced by apomorphine); format: in vivo, mice (dd strain male); details: for ED50: Mus musculus, read-out: ED50 (50% effective dose), anti-climbing
catalepsy = assay: Extrapyramidal activity: catalepsy inducing activity test; set-up: species or system mice (dd strain male); details: mouse, in vivo
Procedure: as §1, §2

[3] = 50 min, Oral administration, apomorphine 1.0 mg/kg s.c. after 50 minutes, mice
[4] = sc, Subcutaneous administration, apomorphine 1.0 mg/kg s.c., mice

Row | Structure (SMILES) | TD50 ([1]; po) [mg/kg] | ED50 [2, 3] [mg/kg] | ED50 [2, 4] [mg/kg] | extrapyramidal activity (catalepsy inducing activity), in words (catalepsy) | TD50 ([1]; oral administration, checked 1 and 4 hours after administration, mice, read-out: ED50, catalepsy induction) [mg/kg] | ED50 ([2]; sc) [mg/kg] | neuroleptic activity (anti-climbing activity), in words ([2]; route not stated)
1 | O=C1[C@@H]2[C@H]3CC[C@H](C3)[C@@H]2C(=O)N1CCCCN1CCN(c2nsc3ccccc23)CC1 [Compound No. 1, N-[4-{4-(1,2-Benzisothiazol-3-yl)-1-piperazinyl}butyl]bicyclo[2.2.1]heptane-2,3-di-exo-carboximide] | 68.1 | 2 | 0.15 |  |  |  | 
2 | O=C1CC2(CCCC2)CC(=O)N1CCCCN1CCN(c2nsc3ccccc23)CC1 [Tiaspiron, 8-[4-(3-benzisothiazolyl)-1-piperazinylbutyl]-8-azaspiro[4,5]decane-7,9-dione] |  | > 10 | 0.23 |  |  |  | 
3 | O=C(CCCN1CCC(O)(c2ccc(Cl)cc2)CC1)c1ccc(F)cc1 [Haloperidol, 4-[4-(4-chlorophenyl)-4-hydroxy-1-piperidinyl]-1-(4-fluorophenyl)-1-butanone] |  |  |  | considerably high level of extra-pyramidal activity | < 5 | 0.21 | significant neuroleptic activity
4 | O=C1[C@@H]2[C@@H]3CC[C@@H](C3)[C@@H]2C(=O)N1CCCCN1CCN(c2nsc3ccccc23)CC1 [Compound No. 5, N--[4-{4-(1,2-Benzisothiazol-3-yl)-1-piperazinyl}butyl]bicyclo[2.2.1]heptane-2,3-di-endo-carboximide] | 112 | 2.6 | 0.13 |  |  |  | 
